Measurements as given in publication PMC4996973, “Topology and structure of an engineered human cohesin complex bound to Pds5B” (Nature Communications, 2016).
Blank lines part the entries; values can stand above or below the molecule they belong to.

What was measured:
[1] = target: T1, bonsai cohesin trimer (Smc1^B, Smc3^B, Scc1) (Homo sapiens, UniProt Q14683+Q9UQE7, Q14683:DEL201-498/Q9UQE7:DEL205-491/Q14683:DEL676-977/Q9UQE7:DEL686-956); experiment: differential scanning fluorimetry (thermal shift); type: binding; settings: slowly hydrolysable ATP analogue; stabilises the complex; trimer inferred from context
T1 construct: gene SMC1A; coiled coils of Smc1 and Smc3 truncated and replaced by two-residue linkers (superscript B = bonsai, not the SMC1B paralogue); Smc3^B-FLAG, Scc1-10HIS tags; co-expressed from baculovirus in Sf9; stoichiometric trimer, 222 kDa; with Double-strand-break repair protein rad21 homolog

[2] = target: T2, bonsai cohesin trimer (Smc1^B, Smc3^B, Scc1) (Homo sapiens, UniProt Q14683+Q9UQE7, Q9UQE7:K38A/Q14683:DEL201-498/Q9UQE7:DEL205-491/Q14683:DEL676-977/Q9UQE7:DEL686-956); experiment: radiolabelled ATPase assay, thin layer chromatography of released […]-Pi; type: biochemical; settings: labelled compound (γ-32P); ATP-binding region mutant, ATPase largely abolished
T2 construct: gene SMC1A; coiled coils of Smc1 and Smc3 truncated and replaced by two-residue linkers (superscript B = bonsai, not the SMC1B paralogue); Smc3^B-FLAG, Scc1-10HIS tags; co-expressed from baculovirus in Sf9; stoichiometric trimer, 222 kDa; with Double-strand-break repair protein rad21 homolog

[3] = target: T1, bonsai cohesin trimer (Smc1^B, Smc3^B, Scc1); experiment: as above; type: biochemical; settings: labelled compound (γ-32P)
Pds5B^10HIS [4] = target: T3, Pds5B^10HIS (human, UniProt Q9NTI5 1-1447); experiment: cross-linking; chemical crosslinking followed by mass spectrometry of purified bonsai cohesin (co-expressed subunits) bound to Pds5B; 102 inter- and 244 intramolecular crosslinks; details in the Supplementary Methods; settings: both partners purified
T3 construct: Pds5B, human, recombinant; printed mass 165 kDa; source: sf9 cells (baculovirus), purified (Ni-NTA; imidazole removed by dilution and concentration or by size-exclusion chromatography on Superdex 200), freeze-thawed
T3 sequence (looked up): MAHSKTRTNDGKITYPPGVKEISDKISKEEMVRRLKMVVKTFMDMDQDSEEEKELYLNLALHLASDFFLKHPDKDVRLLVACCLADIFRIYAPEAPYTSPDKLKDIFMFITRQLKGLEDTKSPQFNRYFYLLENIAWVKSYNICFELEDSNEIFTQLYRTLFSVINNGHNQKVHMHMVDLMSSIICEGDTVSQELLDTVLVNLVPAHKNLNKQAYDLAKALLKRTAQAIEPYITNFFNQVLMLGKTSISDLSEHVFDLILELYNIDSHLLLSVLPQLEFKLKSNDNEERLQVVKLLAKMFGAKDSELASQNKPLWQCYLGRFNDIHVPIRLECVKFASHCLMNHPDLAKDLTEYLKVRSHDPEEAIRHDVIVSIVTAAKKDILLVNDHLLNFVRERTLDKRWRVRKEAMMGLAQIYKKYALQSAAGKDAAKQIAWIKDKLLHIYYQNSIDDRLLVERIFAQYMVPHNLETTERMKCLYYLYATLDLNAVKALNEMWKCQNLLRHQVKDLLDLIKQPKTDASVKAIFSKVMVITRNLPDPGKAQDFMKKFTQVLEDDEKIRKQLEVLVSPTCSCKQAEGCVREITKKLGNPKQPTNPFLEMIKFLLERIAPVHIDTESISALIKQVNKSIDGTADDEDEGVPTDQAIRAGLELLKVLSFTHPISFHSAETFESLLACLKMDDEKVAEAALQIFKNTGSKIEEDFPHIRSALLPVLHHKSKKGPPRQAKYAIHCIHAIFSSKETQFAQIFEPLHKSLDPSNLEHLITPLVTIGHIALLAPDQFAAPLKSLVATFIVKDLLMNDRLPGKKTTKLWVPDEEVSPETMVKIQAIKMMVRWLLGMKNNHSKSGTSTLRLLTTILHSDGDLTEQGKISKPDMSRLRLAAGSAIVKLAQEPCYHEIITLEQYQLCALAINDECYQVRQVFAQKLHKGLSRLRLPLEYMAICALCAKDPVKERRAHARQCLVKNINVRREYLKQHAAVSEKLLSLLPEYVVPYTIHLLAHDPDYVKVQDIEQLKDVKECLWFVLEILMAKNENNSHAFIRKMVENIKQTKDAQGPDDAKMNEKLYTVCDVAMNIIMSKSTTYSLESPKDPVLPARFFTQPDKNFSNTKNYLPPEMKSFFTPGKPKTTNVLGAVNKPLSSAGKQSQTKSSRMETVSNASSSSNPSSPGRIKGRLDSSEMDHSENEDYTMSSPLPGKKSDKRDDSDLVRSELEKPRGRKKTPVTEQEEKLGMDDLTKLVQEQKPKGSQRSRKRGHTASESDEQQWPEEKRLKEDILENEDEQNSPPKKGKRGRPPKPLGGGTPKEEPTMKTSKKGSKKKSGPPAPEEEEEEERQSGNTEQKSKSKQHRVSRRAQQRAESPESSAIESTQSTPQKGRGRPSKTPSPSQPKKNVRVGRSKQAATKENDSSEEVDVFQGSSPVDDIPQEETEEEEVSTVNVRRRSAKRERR

Pds5B^10HIS [5] = target: T3, Pds5B^10HIS; experiment: negative staining EM, single-particle 3D reconstruction; GraFix-prepared complexes (0.1% glutaraldehyde gradient, ATPγS), uranyl formate stain; 3D models at 28-35 Å; densities assigned by difference maps; settings: both partners purified

binding result (Pds5B^10HIS [4]): binds
B1: SA1 (natural protein, human, UniProt Q8WVM7 1-1258, looked up)
chain: MITSELPVLQDSTNETTAHSDAGSELEETEVKGKRKRGRPGRPPSTNKKPRKSPGEKSRIEAGIRGAGRGRANGHPQQNGEGEPVTLFEVVKLGKSAMQSVVDDWIESYKQDRDIALLDLINFFIQCSGCRGTVRIEMFRNMQNAEIIRKMTEEFDEDSGDYPLTMPGPQWKKFRSNFCEFIGVLIRQCQYSIIYDEYMMDTVISLLTGLSDSQVRAFRHTSTLAAMKLMTALVNVALNLSIHQDNTQRQYEAERNKMIGKRANERLELLLQKRKELQENQDEIENMMNSIFKGIFVHRYRDAIAEIRAICIEEIGVWMKMYSDAFLNDSYLKYVGWTLHDRQGEVRLKCLKALQSLYTNRELFPKLELFTNRFKDRIVSMTLDKEYDVAVEAIRLVTLILHGSEEALSNEDCENVYHLVYSAHRPVAVAAGEFLHKKLFSRHDPQAEEALAKRRGRNSPNGNLIRMLVLFFLESELHEHAAYLVDSLWESSQELLKDWECMTELLLEEPVQGEEAMSDRQESALIELMVCTIRQAAEAHPPVGRGTGKRVLTAKERKTQIDDRNKLTEHFIITLPMLLSKYSADAEKVANLLQIPQYFDLEIYSTGRMEKHLDALLKQIKFVVEKHVESDVLEACSKTYSILCSEEYTIQNRVDIARSQLIDEFVDRFNHSVEDLLQEGEEADDDDIYNVLSTLKRLTSFHNAHDLTKWDLFGNCYRLLKTGIEHGAMPEQIVVQALQCSHYSILWQLVKITDGSPSKEDLLVLRKTVKSFLAVCQQCLSNVNTPVKEQAFMLLCDLLMIFSHQLMTGGREGLQPLVFNPDTGLQSELLSFVMDHVFIDQDEENQSMEGDEEDEANKIEALHKRRNLLAAFSKLIIYDIVDMHAAADIFKHYMKYYNDYGDIIKETLSKTRQIDKIQCAKTLILSLQQLFNELVQEQGPNLDRTSAHVSGIKELARRFALTFGLDQIKTREAVATLHKDGIEFAFKYQNQKGQEYPPPNLAFLEVLSEFSSKLLRQDKKTVHSYLEKFLTEQMMERREDVWLPLISYRNSLVTGGEDDRMSVNSGSSSSKTSSVRNKKGRPPLHKKRVEDESLDNTWLNRTDTMIQTPGPLPAPQLTSTVLRENSRPMGDQIQEPESEHGSEPDFLHNPQMQISWLGQPKLEDLNRKDRTGMNYMKVRTGVRHAVRGLMEEDAEPIFEDVMMSSRSQLEDMNEEFEDTMVIDLPPSRNRRERAELRPDFFDSAAIIEDDSGFGMPMF
notes: SA1, human (146 kDa printed)

binding result (Pds5B^10HIS [5]): binds
B2: Scc1^10HIS (natural protein, human, UniProt O60216 1-631, looked up)
chain: MFYAHFVLSKRGPLAKIWLAAHWDKKLTKAHVFECNLESSVESIISPKVKMALRTSGHLLLGVVRIYHRKAKYLLADCNEAFIKIKMAFRPGVVDLPEENREAAYNAITLPEEFHDFDQPLPDLDDIDVAQQFSLNQSRVEEITMREEVGNISILQENDFGDFGMDDREIMREGSAFEDDDMLVSTTTSNLLLESEQSTSNLNEKINHLEYEDQYKDDNFGEGNDGGILDDKLISNNDGGIFDDPPALSEAGVMLPEQPAHDDMDEDDNVSMGGPDSPDSVDPVEPMPTMTDQTTLVPNEEEAFALEPIDITVKETKAKRKRKLIVDSVKELDSKTIRAQLSDYSDIVTTLDLAPPTKKLMMWKETGGVEKLFSLPAQPLWNNRLLKLFTRCLTPLVPEDLRKRRKGGEADNLDEFLKEFENPEVPREDQQQQHQQRDVIDEPIIEEPSRLQESVMEASRTNIDESAMPPPPPQGVKRKAGQIDPEPVMPPQQVEQMEIPPVELPPEEPPNICQLIPELELLPEKEKEKEKEKEDDEEEEDEDASGGDQDQEERRWNKRTQQMLHGLQRALAKTGAESISLLELCRNTNRKQAAAKFYSFLVLKKQQAIELTQEEPYSDIIATPGPRFHII
notes: Scc1 (Rad21, Mcd1), human; also called Rad21; Mcd1

The remaining lines, values behind:

Molecule: Nc1ncnc2c1ncn2[C@@H]1O[C@H](COP(=O)(O)OP(=O)(O)OP(O)(O)=S)[C@@H](O)[C@H]1O [ATPγS]
differential scanning fluorimetry (thermal shift) [1]: presence of the slowly hydrolyzable ATP-analogue ATPyS, as well as a near physiological pH improved the stability

Molecule: Nc1ncnc2c1ncn2[C@@H]1O[C@H](COP(=O)(O)OP(=O)(O)OP(=O)(O)O)[C@@H](O)[C@H]1O [ATP]
radiolabelled ATPase assay, thin layer chromatography of released 32P-Pi [2]: The single point mutation largely abolished bonsai cohesin's ATPase activity | radiolabelled ATPase assay, thin layer chromatography of released 32P-Pi [3]: Bonsai trimers containing wild-type NBDs ... were able to hydrolyse ATP
